# Source: patent US20230017045A1, “PYRIDINE AND PYRIMIDINE CARBOXYLATE HERBICIDES AND METHODS OF USE THEREOF” (Dow AgroSciences LLC, priority 2017, published 2023)
# System: test plant species
# Test: Post-emergent herbicidal activity test (greenhouse, foliar spray, visual growth reduction)
# Type: in vivo
# Conditions: post-emergence, 336 h, ALOMY: blackgrass (Alopecurus myosuroides), 140 g ai/ha, 14 days after application, read-out: Visual Growth Reduction (%) 14 Days After Application, ALOMY
# Outline: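 Scoring used a 0 to 100 percent visual scale of growth reduction against solvent-treated controls, read 14 d after spraying. Applications went onto plants at first or second true leaf stage, 187 L/ha, with crop oil concentrate and X-77 surfactant in the carrier. Post-treatment watering was by subirrigation to avoid wash-off.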
row,SMILES,pest or weed control at 140 g/ha
1,"COC(=O)c1nc(-c2ccc(SC(F)(F)F)cc2)c(F)cc1Cl [F91, Methyl 3-chloro-5-fluoro-6-(4-((trifluoromethyl)thio)phenyl) picolinate]",0 to 29%
2,"COC(=O)c1nc(-c2ccc(Cl)cc2)ccc1Cl [F82, methyl 3-chloro-6-(4-chlorophenyl)picolinate]",0 to 29%
3,"COC(=O)c1cc(Cl)cc(-c2ccc(Cl)cc2Cl)n1 [F56, Methyl 4-chloro-6-(2,4-dichlorophenyl) picolinate]",0 to 29%

# Same assay, conditions: post-emergence, 336 h, AMARE: redroot pigweed (Amaranthus retroflexus), 140 g ai/ha, 14 days after application, read-out: Visual Growth Reduction (%) 14 Days After Application, AMARE
row,SMILES,pest or weed control at 140 g/ha
1,"COC(=O)c1nc(-c2ccc(SC(F)(F)F)cc2)c(F)cc1Cl [F91, Methyl 3-chloro-5-fluoro-6-(4-((trifluoromethyl)thio)phenyl) picolinate]",0 to 29%
2,"COC(=O)c1nc(-c2ccc(Cl)cc2)ccc1Cl [F82, methyl 3-chloro-6-(4-chlorophenyl)picolinate]",95 to 100%
3,"COC(=O)c1cc(Cl)cc(-c2ccc(Cl)cc2Cl)n1 [F56, Methyl 4-chloro-6-(2,4-dichlorophenyl) picolinate]",0 to 29%

# Same assay, conditions: post-emergence, 336 h, AVEFA: wild oat (Avena fatua), 140 g ai/ha, 14 days after application, read-out: Visual Growth Reduction (%) 14 Days After Application, AVEFA
row,SMILES,pest or weed control at 140 g/ha
1,"COC(=O)c1nc(-c2ccc(SC(F)(F)F)cc2)c(F)cc1Cl [F91, Methyl 3-chloro-5-fluoro-6-(4-((trifluoromethyl)thio)phenyl) picolinate]",0 to 29%
2,"COC(=O)c1nc(-c2ccc(Cl)cc2)ccc1Cl [F82, methyl 3-chloro-6-(4-chlorophenyl)picolinate]",0 to 29%
3,"COC(=O)c1cc(Cl)cc(-c2ccc(Cl)cc2Cl)n1 [F56, Methyl 4-chloro-6-(2,4-dichlorophenyl) picolinate]",0 to 29%

# Same assay, conditions: post-emergence, 336 h, CHEAL: lambsquarters (Chenopodium album), 140 g ai/ha, 14 days after application, read-out: Visual Growth Reduction (%) 14 Days After Application, CHEAL
row,SMILES,pest or weed control at 140 g/ha
1,"COC(=O)c1nc(-c2ccc(SC(F)(F)F)cc2)c(F)cc1Cl [F91, Methyl 3-chloro-5-fluoro-6-(4-((trifluoromethyl)thio)phenyl) picolinate]",0 to 29%
2,"COC(=O)c1nc(-c2ccc(Cl)cc2)ccc1Cl [F82, methyl 3-chloro-6-(4-chlorophenyl)picolinate]",60 to 74%
3,"COC(=O)c1cc(Cl)cc(-c2ccc(Cl)cc2Cl)n1 [F56, Methyl 4-chloro-6-(2,4-dichlorophenyl) picolinate]",0 to 29%

# Same assay, conditions: post-emergence, 336 h, CIRAR: canada thistle (Cirsium arvense), 140 g ai/ha, 14 days after application, read-out: Visual Growth Reduction (%) 14 Days After Application, CIRAR
row,SMILES,pest or weed control at 140 g/ha
1,"COC(=O)c1nc(-c2ccc(SC(F)(F)F)cc2)c(F)cc1Cl [F91, Methyl 3-chloro-5-fluoro-6-(4-((trifluoromethyl)thio)phenyl) picolinate]",30 to 44%
2,"COC(=O)c1nc(-c2ccc(Cl)cc2)ccc1Cl [F82, methyl 3-chloro-6-(4-chlorophenyl)picolinate]",75 to 84%
3,"COC(=O)c1cc(Cl)cc(-c2ccc(Cl)cc2Cl)n1 [F56, Methyl 4-chloro-6-(2,4-dichlorophenyl) picolinate]",0 to 29%

# Same assay, conditions: post-emergence, 336 h, CYPES: yellow nutsedge (Cyperus esculentus), 140 g ai/ha, 14 days after application, read-out: Visual Growth Reduction (%) 14 Days After Application, CYPES
row,SMILES,pest or weed control at 140 g/ha
1,"COC(=O)c1nc(-c2ccc(SC(F)(F)F)cc2)c(F)cc1Cl [F91, Methyl 3-chloro-5-fluoro-6-(4-((trifluoromethyl)thio)phenyl) picolinate]",0 to 29%
2,"COC(=O)c1nc(-c2ccc(Cl)cc2)ccc1Cl [F82, methyl 3-chloro-6-(4-chlorophenyl)picolinate]",75 to 84%
3,"COC(=O)c1cc(Cl)cc(-c2ccc(Cl)cc2Cl)n1 [F56, Methyl 4-chloro-6-(2,4-dichlorophenyl) picolinate]",0 to 29%

# Same assay, conditions: post-emergence, 336 h, DIGSA: crabgrass (Digitaria sanguinalis), 140 g ai/ha, 14 days after application, read-out: Visual Growth Reduction (%) 14 Days After Application, DIGSA
row,SMILES,pest or weed control at 140 g/ha
1,"COC(=O)c1nc(-c2ccc(SC(F)(F)F)cc2)c(F)cc1Cl [F91, Methyl 3-chloro-5-fluoro-6-(4-((trifluoromethyl)thio)phenyl) picolinate]",0 to 29%
2,"COC(=O)c1nc(-c2ccc(Cl)cc2)ccc1Cl [F82, methyl 3-chloro-6-(4-chlorophenyl)picolinate]",0 to 29%
3,"COC(=O)c1cc(Cl)cc(-c2ccc(Cl)cc2Cl)n1 [F56, Methyl 4-chloro-6-(2,4-dichlorophenyl) picolinate]",0 to 29%

# Same assay, conditions: post-emergence, 336 h, ECHCG: barnyardgrass (Echinochloa crus-galli), 140 g ai/ha, 14 days after application, read-out: Visual Growth Reduction (%) 14 Days After Application, ECHCG
row,SMILES,pest or weed control at 140 g/ha
1,"COC(=O)c1nc(-c2ccc(SC(F)(F)F)cc2)c(F)cc1Cl [F91, Methyl 3-chloro-5-fluoro-6-(4-((trifluoromethyl)thio)phenyl) picolinate]",0 to 29%
2,"COC(=O)c1nc(-c2ccc(Cl)cc2)ccc1Cl [F82, methyl 3-chloro-6-(4-chlorophenyl)picolinate]",0 to 29%
3,"COC(=O)c1cc(Cl)cc(-c2ccc(Cl)cc2Cl)n1 [F56, Methyl 4-chloro-6-(2,4-dichlorophenyl) picolinate]",0 to 29%

# Same assay, conditions: post-emergence, 336 h, IPOHE: ivy-leaf morning glory (Ipomoea hederacea), 140 g ai/ha, 14 days after application, read-out: Visual Growth Reduction (%) 14 Days After Application, IPOHE
row,SMILES,pest or weed control at 140 g/ha
1,"COC(=O)c1nc(-c2ccc(SC(F)(F)F)cc2)c(F)cc1Cl [F91, Methyl 3-chloro-5-fluoro-6-(4-((trifluoromethyl)thio)phenyl) picolinate]",30 to 44%
2,"COC(=O)c1nc(-c2ccc(Cl)cc2)ccc1Cl [F82, methyl 3-chloro-6-(4-chlorophenyl)picolinate]",75 to 84%
3,"COC(=O)c1cc(Cl)cc(-c2ccc(Cl)cc2Cl)n1 [F56, Methyl 4-chloro-6-(2,4-dichlorophenyl) picolinate]",0 to 29%

# Same assay, conditions: post-emergence, 336 h, KCHSC: kochia (Bassia scoparia), 140 g ai/ha, 14 days after application, read-out: Visual Growth Reduction (%) 14 Days After Application, KCHSC
row,SMILES,pest or weed control at 140 g/ha
1,"COC(=O)c1nc(-c2ccc(SC(F)(F)F)cc2)c(F)cc1Cl [F91, Methyl 3-chloro-5-fluoro-6-(4-((trifluoromethyl)thio)phenyl) picolinate]",0 to 29%
2,"COC(=O)c1nc(-c2ccc(Cl)cc2)ccc1Cl [F82, methyl 3-chloro-6-(4-chlorophenyl)picolinate]",60 to 74%
3,"COC(=O)c1cc(Cl)cc(-c2ccc(Cl)cc2Cl)n1 [F56, Methyl 4-chloro-6-(2,4-dichlorophenyl) picolinate]",0 to 29%

# Same assay, conditions: post-emergence, 336 h, ORYSA: rice (Oryza sativa), 140 g ai/ha, 14 days after application, read-out: Visual Growth Reduction (%) 14 Days After Application, ORYSA
row,SMILES,pest or weed control at 140 g/ha
1,"COC(=O)c1nc(-c2ccc(SC(F)(F)F)cc2)c(F)cc1Cl [F91, Methyl 3-chloro-5-fluoro-6-(4-((trifluoromethyl)thio)phenyl) picolinate]",0 to 29%
2,"COC(=O)c1nc(-c2ccc(Cl)cc2)ccc1Cl [F82, methyl 3-chloro-6-(4-chlorophenyl)picolinate]",0 to 29%
3,"COC(=O)c1cc(Cl)cc(-c2ccc(Cl)cc2Cl)n1 [F56, Methyl 4-chloro-6-(2,4-dichlorophenyl) picolinate]",0 to 29%

# Same assay, conditions: post-emergence, 336 h, SETFA: giant foxtail (Setaria faberi), 140 g ai/ha, 14 days after application, read-out: Visual Growth Reduction (%) 14 Days After Application, SETFA
row,SMILES,pest or weed control at 140 g/ha
1,"COC(=O)c1nc(-c2ccc(SC(F)(F)F)cc2)c(F)cc1Cl [F91, Methyl 3-chloro-5-fluoro-6-(4-((trifluoromethyl)thio)phenyl) picolinate]",0 to 29%
2,"COC(=O)c1cc(Cl)cc(-c2ccc(Cl)cc2Cl)n1 [F56, Methyl 4-chloro-6-(2,4-dichlorophenyl) picolinate]",0 to 29%

# Same assay, conditions: post-emergence, 336 h, SORVU: grain sorghum (Sorghum vulgare), 140 g ai/ha, 14 days after application, read-out: Visual Growth Reduction (%) 14 Days After Application, SORVU
row,SMILES,pest or weed control at 140 g/ha
1,"COC(=O)c1nc(-c2ccc(SC(F)(F)F)cc2)c(F)cc1Cl [F91, Methyl 3-chloro-5-fluoro-6-(4-((trifluoromethyl)thio)phenyl) picolinate]",0 to 29%
2,"COC(=O)c1nc(-c2ccc(Cl)cc2)ccc1Cl [F82, methyl 3-chloro-6-(4-chlorophenyl)picolinate]",0 to 29%
3,"COC(=O)c1cc(Cl)cc(-c2ccc(Cl)cc2Cl)n1 [F56, Methyl 4-chloro-6-(2,4-dichlorophenyl) picolinate]",0 to 29%

# Same assay, conditions: post-emergence, 336 h, STEME: common chickweed (Stellaria media), 140 g ai/ha, 14 days after application, read-out: Visual Growth Reduction (%) 14 Days After Application, STEME
row,SMILES,pest or weed control at 140 g/ha
1,"COC(=O)c1nc(-c2ccc(SC(F)(F)F)cc2)c(F)cc1Cl [F91, Methyl 3-chloro-5-fluoro-6-(4-((trifluoromethyl)thio)phenyl) picolinate]",0 to 29%
2,"COC(=O)c1nc(-c2ccc(Cl)cc2)ccc1Cl [F82, methyl 3-chloro-6-(4-chlorophenyl)picolinate]",30 to 44%
3,"COC(=O)c1cc(Cl)cc(-c2ccc(Cl)cc2Cl)n1 [F56, Methyl 4-chloro-6-(2,4-dichlorophenyl) picolinate]",0 to 29%

# Same assay, conditions: post-emergence, 336 h, TRZAS: wheat, spring (Triticum aestivum), 140 g ai/ha, 14 days after application, read-out: Visual Growth Reduction (%) 14 Days After Application, TRZAS
row,SMILES,pest or weed control at 140 g/ha
1,"COC(=O)c1nc(-c2ccc(SC(F)(F)F)cc2)c(F)cc1Cl [F91, Methyl 3-chloro-5-fluoro-6-(4-((trifluoromethyl)thio)phenyl) picolinate]",0 to 29%
2,"COC(=O)c1cc(Cl)cc(-c2ccc(Cl)cc2Cl)n1 [F56, Methyl 4-chloro-6-(2,4-dichlorophenyl) picolinate]",0 to 29%
